According to US20110206786A1, “Acai and Iridoid Based Formulations” (priority 2010, published 2011):

How the values were obtained:
E. coli PQ37 [1] = test: Anti-genotoxicity test (SOS-chromotest with 4NQO); format: cell-based; conditions: 250 μg mL^−1 iridoid plus 1.25 μg 4NQO, compared with vehicle blank
Protocol: The primary DNA damage test was performed again, similar to the method described above. […] Induction factors were calculated in the same manner as described above.

E. coli PQ37 [2] = format: cell-based; conditions: iridoid at 250 ug plus 1.25 ug mL^−1 4NQO; blank = 1
Protocol: The SOS-chromotest in E. coli PQ37 was used to determine the potential for iridoids in noni fruit from French Polynesia to prevent primary DNA damage. E coli PQ37 was incubated at 37° C. in the presence of deacetylasperulosidic acid and asperulosidic acid at a concentration of 250 ug in a 96-well plate. Replicate samples were evaluated. […] Following incubation with the samples, 5-bromo-4-chloro-3-indolyl-β-D-galactopyranoside was added to the wells to detect β-galactosidase enzyme activity, which is induced during SOS repair of damaged DNA. The samples were again incubated for 90 minutes and the absorbances of the samples, blank and positive control were measured at 620 nm with a microplate reader. The β-galactosidase enzyme activity induction factor of each material was calculated by dividing the absorbance of the sample at 620 nm by that of the blank, while also correcting for cell viability.

[3] = Thermal stability of DAA under pasteurization conditions (HPLC); format: physicochemical; conditions: 90° C. at pH 3.3 for one minute
Protocol: Tahitian noni fruit puree as used in this example is the mashed whole fruit, excluding seeds and pericarp. The fruits were originally collected from the Tahitian Islands. One gram of the puree was diluted with 5 mL of H2O-MeOH (1:1) and mixed thoroughly. The solution was then filtered through a nylon microfilter (0.45-μm pore size); the solution was collected into a 5 mL volumetric flask for HPLC analysis. Four batches of noni puree were analyzed in the experiments. Voucher specimens of the noni fruit puree are deposited in our lab. To test iridoid stability, a DAA solution of 0.5 mg/mL was prepared with MeOH. This solution was heated in a water-bath at 90° C. for 1 min, cooled to room temperature, and analyzed by HPLC.
Noni fruit juice is usually subjected to heat pasteurization during commercial processing. Pasteurization is usually employed in noni industry, i.e., heating up to 87.7° C. for several seconds. In this study, the stability of DAA was conducted. DAA was exposed to 90° C. at pH 3.3 for one minute to determine its thermal stability at acidic conditions.

| SMILES | induction factors of 4NQO plus DAA or AA (E. coli PQ37 [1]) | β-galactosidase enzyme activity induction factor (mean±standard deviation) (E. coli PQ37 [2]) | thermal stability (DAA contents before and after heating) [3] |
| --- | --- | --- | --- |
| CC(=O)OCC1=C[C@H](O)[C@@H]2C(C(=O)O)=CO[C@@H](O[C@@H]3O[C@H](CO)[C@@H](O)[C@H](O)[C@H]3O)[C@H]12 [AA, asperulosidic acid] | no statistical difference from that of the vehicle blank | 1.04±0.01 |  |
| O=C(O)C1=CO[C@@H](O[C@@H]2O[C@H](CO)[C@@H](O)[C@H](O)[C@H]2O)[C@@H]2C(CO)=C[C@H](O)[C@H]12 [DAA, deacetylasperulosidic acid] | no statistical difference from that of the vehicle blank | 0.98±0.02 | no difference in the DAA contents before and after heating |
